Data: US20250243219A1, “MACROCYCLIC COMPOUNDS AND USES THEREOF” (Cypralis Limited, priority 2022, published 2025)

How the values were obtained:
cyclophilin A = cyclophilin A (Homo sapiens (Human), UniProt P62937); test: Functional peptidyl prolyl isomerase (PPIase) spectrophotometric assay, cyclophilin A; format: biochemical; conditions: first value of CypA/D cell
Excerpt: (§1) Cyclophilins are enzymes that catalyse the cis-trans isomerisation of peptide bonds to the amino acid proline. This event is important in many biological processes, including protein folding and signal transduction. […] The method to measure this activity and its inhibition is similar to that described by Jankowski (Analytical Biochemistry, 252, 2, 299-307 (1997)). The assay measures the cis to trans isomerisation of a peptide substrate catalysed by a PPlase enzyme using a UV/Vis spectrophotometer. This assay is a manual single cuvette-based assay. A first order rate equation is fitted to the absorbance data to obtain a rate constant. The catalytic rate is calculated from the enzymatic rate minus the background rate. The Ki (the concentration required to produce half maximum inhibition) for an inhibitor is obtained from the rate constant plotted against the inhibitor concentration. Typically, a 6-point dose response curve is obtained from duplicates and a Ki determined. Data are given in Table 5 as Ki [nM] for cyclophilins A and D, expressed in column 2 of Table 5 as Ki (cypA)/Ki (cypD).

cyclophilin D = cyclophilin D (Homo sapiens (Human), UniProt P30405); test: Functional peptidyl prolyl isomerase (PPIase) spectrophotometric assay, cyclophilin D; format: biochemical; conditions: second value of CypA/D cell; read-out: Ki CypD
Excerpt: as §1

SH-SY5Y cells = test: Thapsigargin treated cell death assay in SH-SY5Y cells; format: cell-based, human; conditions: compound at 10 μM; positive = protection from cell death, negative = compound toxicity
Excerpt: Thapsigargin raises intracellular free calcium (Ca^2+) by potently inhibiting the endoplasmic reticulum Ca-ATPase, which sequesters Ca^2+ from the cytosol. The increased cytosolic Ca^2+ concentration is buffered by mitochondria by exchanging Ca^2+ for K, leading to depolarisation in the inner mitochondrial membrane and permeability transition.
The thapsigargin treated Jurkat cell death assay is a homogeneous 96 well plate based assay for cell death, instigated by the opening of the mitochondrial permeability transition pore (MPTP). The addition of thapsigargin to Jurkat cells results in an influx of calcium, the increase in intracellular calcium will initially be buffered by the mitochondria, but eventually the increasing calcium concentration will result in the opening of the MPTP, resulting in cell death.
CellTox™ Green is a dye which is unable to enter the cell until cell death leads to the loss of membrane integrity. Once this happens the CellTox™ Green enters the cell, binds to the cell's DNA and emits a fluorescent signal. […] Unless otherwise stated, the assay is typically run using a range of three compound concentrations of 1, 3 and 10 μM in triplicate and is read kinetically over a period of 24 hours. Compounds are added 30 minutes before the addition of thapsigargin. Compound only controls and positive control, cyclosporin A (CsA) (3 and 10 μM) are also included in the assay. Results are typically calculated at the 8 hour time point and the kinetic data is also reported.
The assay is carried out as described for the Jurkat cells but using the SH-SY5Y (human neuroblastoma) cell line instead of Jurkat cells. The results are shown in the fourth column of Table 5 (SY5Y [10 μM]% recovery). Positive numbers indicate protection from cell death, negative numbers indicate compound toxicity.

[1] = test system: permeabilised HepG2 cells; test: Calcium retention capacity (CRC) assay in permeabilised HepG2 cells (MPTP opening); format: cell-based, human; parameters: CRC [10 μM]: unit not given here; conditions: compound at 10 μM; for CRC [10 μM]: digitonin permeabilised HepG2 cells; for CRC [10 μM] (ratio vs CsA): normalised to cyclosporin A, value in brackets
Procedure: The use of permeabilised cells means that inhibitory compounds that may not normally enter non-permeabilised cells are more likely to be active.
The calcium retention capacity (CRC) is a measure of the capability of mitochondria to retain calcium, primarily in the form of calcium phosphates, in the mitochondrial matrix.
In a CRC assay, the calcium indicator Calcium Green-5N (InVitrogen) is utilized. […] The assay is carried out in HepG2 (human hepatocellular carcinoma) cells which are digitonin permeabilized. Trains of calcium pulses (typically 5 μM additions) are added which results in a sudden increase in fluorescence which is then reduced by mitochondrial buffering. The cells will reach a point at which the calcium addition is no longer buffered, an indication that the MPTP has opened (mitochondrial permeability transition).
The experiment is performed with and without inhibitor. A compound that acts to inhibit the mitochondrial pore opening will result in a greater requirement for calcium to reach the transition point. The results are normalised to a positive control (cyclosporin A) in each experiment. The results are shown in column 3 of Table 5 as CRC [10 μM] (ratio vs CsA). The method of digitonin permeabilised whole cell CRC assay is similar to that used by Chiara et al. (PLoS One, March, 3, 3, e1852 (2008)).

Chain of cyclophilin A (P62937 whole entry, species assumed): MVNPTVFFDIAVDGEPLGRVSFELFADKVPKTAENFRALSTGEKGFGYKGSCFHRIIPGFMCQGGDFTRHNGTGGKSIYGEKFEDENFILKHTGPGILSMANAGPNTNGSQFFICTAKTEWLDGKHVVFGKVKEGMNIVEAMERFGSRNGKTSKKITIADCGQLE
Chain of cyclophilin D (P30405 30-207, species assumed): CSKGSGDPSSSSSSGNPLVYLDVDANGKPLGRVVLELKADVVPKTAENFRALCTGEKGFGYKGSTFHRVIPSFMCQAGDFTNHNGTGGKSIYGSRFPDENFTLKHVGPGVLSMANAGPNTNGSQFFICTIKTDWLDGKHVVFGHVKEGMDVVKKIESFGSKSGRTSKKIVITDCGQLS

| Compound | Ki (cyclophilin A) | Ki (cyclophilin D) | SYSY [10 μM] % recovery (SH-SY5Y cells) | CRC [10 μM] [1] | CRC [10 μM] (ratio vs CsA) [1] |
| --- | --- | --- | --- | --- | --- |
| C[C@@H]1NC(=O)[C@H](C[C@H]2CCCN(C)C2)OC(=O)C(C)(C)/C=C/c2ccc3ccc(nc3c2)N(C)NC(=O)[C@@H]2CCCN(N2)C1=O [Compound (37)] | 150 nM | 160 nM | 41% | 5 | 0.33 |
| C[C@@H]1NC(=O)C(Cc2ccc(N)nc2)OC(=O)C(C)(C)/C=C/c2ccc3ccc(nc3c2)N(C)NC(=O)[C@@H]2CCCN(N2)C1=O (some centres unmarked) [Compound (43)] | 44 nM | 40 nM | 10% | 10 | 0.67 |
| C[C@@H]1NC(=O)[C@H](Cc2ccc(NS(C)(=O)=O)cc2)OC(=O)C(C)(C)/C=C/c2ccc3ccc(nc3c2)N(C)NC(=O)[C@@H]2CCCN(N2)C1=O [Compound (46)] | 3 nM | 2.5 nM | 29% | 25 | 1.00 |
| C[C@@H]1NC(=O)[C@H](CN2CCNCC2)OC(=O)C(C)(C)/C=C/c2ccc3ccc(nc3c2)N(C)NC(=O)[C@@H]2CCCN(N2)C1=O [Compound (48)] | 26 nM | 11 nM | 46% | 10 | 0.5 |
| CC(C)C(=O)Nc1cccc(C[C@@H]2OC(=O)C(C)(C)/C=C/c3ccc4ccc(nc4c3)N(C)NC(=O)[C@@H]3CCCN(N3)C(=O)[C@H](C)NC2=O)c1 [Compound (49)] | 22 nM | 14 nM | 40% | 20 | 1.00 |
| C[C@@H]1NC(=O)[C@H](Cc2cccc(N)c2)OC(=O)C(C)(C)/C=C/c2ccc3ccc(nc3c2)N(C)NC(=O)[C@@H]2CCCN(N2)C1=O [Compound (50)] | 2.4 nM | 1.6 nM | 25% | 20 | 1.00 |
| C[C@@H]1NC(=O)[C@H](CCl)OC(=O)C(C)(C)/C=C/c2ccc3ccc(nc3c2)N(C)NC(=O)[C@@H]2CCCN(N2)C1=O [Compound (53)] | 15 nM | 28 nM | 21% | 25 | 0.83 |
| C[C@@H]1NC(=O)[C@H](CCC(N)=O)OC(=O)C(C)(C)/C=C/c2ccc3ccc(nc3c2)N(C)NC(=O)[C@@H]2CCCN(N2)C1=O [Compound (54)] | 36 nM | 700 nM | 10% | 15 | 0.50 |
| C[C@@H]1NC(=O)[C@H](CCCN)OC(=O)C(C)(C)/C=C/c2ccc3ccc(nc3c2)N(C)NC(=O)[C@@H]2CCCN(N2)C1=O [Compound (55)] | 110 nM | 1900 nM | 37% | 5 | 0.25 |
| C[C@@H]1NC(=O)[C@H](CC2CCCNC2)OC(=O)C(C)(C)/C=C/c2ccc3ccc(nc3c2)N(C)NC(=O)[C@@H]2CCCN(N2)C1=O (some centres unmarked) [Compound (56)] | 295 nM | 56.6 nM | 15% | 8 | 0.36 |
| C[C@@H]1NC(=O)[C@H](C[C@@H]2CCCNC2)OC(=O)C(C)(C)/C=C/c2ccc3ccc(nc3c2)N(C)NC(=O)[C@@H]2CCCN(N2)C1=O [Compound (57)] | 7.8 nM | 7.6 nM | 48.48% | 15 | 0.75 |
| COc1ccc(C[C@@H]2OC(=O)C(C)(C)/C=C/c3ccc4ccc(nc4c3)N(C)NC(=O)[C@@H]3CCCN(N3)C(=O)[C@H](C)NC2=O)cc1 [Compound (60)] | 1.3 nM | 9.5 nM | 37% | 25 | 0.80 |
| CC(C)[C@@H]1OC(=O)C(C)(C)/C=C/c2ccc3ccc(nc3c2)N(C)NC(=O)[C@@H]2CCCN(N2)C(=O)[C@H](CCCCNCc2ccc3ccccc3c2)NC1=O [Compound (61)] | 1.85 nM | 4.25 nM | 35% | 20 | 0.78 |
| CC(C)[C@@H]1OC(=O)C(C)(C)/C=C/c2ccc3ccc(nc3c2)N(C)NC(=O)[C@@H]2CCCN(N2)C(=O)[C@H](CCC(=O)Nc2ccccc2)NC1=O [Compound (63)] | 11 nM | 15 nM | 48% | 30 | 1.00 |
| CC(C)[C@@H]1OC(=O)C(C)(C)/C=C/c2ccc3ccc(nc3c2)N(C)NC(=O)[C@@H]2CCCN(N2)C(=O)[C@H](CCC(=O)N(C)c2ccccc2)NC1=O [Compound (64)] | 5.1 nM | 59 nM | 44% | 25 | 1.00 |
| CC(C)[C@@H]1OC(=O)C(C)(C)/C=C/c2ccc3ccc(nc3c2)N(C)NC(=O)[C@@H]2CCCN(N2)C(=O)[C@H](CCC(=O)NCc2cccnc2)NC1=O [Compound (65)] | 14 nM | 22 nM | 51% | 20 | 0.90 |
| CC(C)[C@@H]1OC(=O)C(C)(C)/C=C/c2ccc3ccc(nc3c2)N(C)NC(=O)[C@@H]2CCCN(N2)C(=O)[C@H](CCC(=O)N[C@H](C)c2ccccc2)NC1=O [Compound (66)] | 3.6 nM | 6.6 nM | 63% | 25 | 0.80 |
| CC(C)[C@@H]1OC(=O)C(C)(C)/C=C/c2ccc3ccc(nc3c2)N(C)NC(=O)[C@@H]2CCCN(N2)C(=O)[C@H](CCC(=O)NCC2CCOCC2)NC1=O [Compound (67)] | 40 nM | 26 nM | 52% | 25 | 1.00 |
| CC(C)[C@@H]1OC(=O)C(C)(C)/C=C/c2ccc3ccc(nc3c2)N(C)NC(=O)[C@@H]2CCCN(N2)C(=O)[C@H](CCC(=O)NCc2cnn(C)c2)NC1=O [Compound (68)] | 16 nM | 9.9 nM | 37% | 25 | 0.83 |
| CC(C)[C@@H]1OC(=O)C(C)(C)/C=C/c2ccc3ccc(nc3c2)N(C)NC(=O)[C@@H]2CCCN(N2)C(=O)[C@H](CCC(=O)N2CCNCC2)NC1=O [Compound (69)] | 34 nM | 41 nM | 17% | 20 | 0.80 |
| CC(C)[C@@H]1OC(=O)C(C)(C)/C=C/c2ccc3ccc(nc3c2)N(C)NC(=O)[C@@H]2CCCN(N2)C(=O)[C@H](CCC(=O)N2CCN(C)CC2)NC1=O [Compound (70)] | 6.7 nM | 53 nM | 44% | 25 | 1.00 |
| CC(C)[C@@H]1OC(=O)C(C)(C)/C=C/c2ccc3ccc(nc3c2)N(C)NC(=O)[C@@H]2CCCN(N2)C(=O)[C@H](CCC(=O)NC2CCN(C)CC2)NC1=O [Compound (71)] | 51 nM | 16 nM | 4% | 18.3 | 0.76 |
